Numbers after ± are expanded uncertainties.

The nature of this data set: of the first substance listed, at infinite dilution; xn = mol fraction of the nth substance listed. The following applies: 298.15 K; 100 kPa; Liquid; isoperibol calorimeter; x1 = 0.

As for `CCCCOCCCN` [3-butoxy-1-propanamine] + O, the partial molar enthalpy was -7.294 ± 0.0574 kcal/mol.
In the case of `CCOCCCN` [3-ethoxy-1-propanamine] + O it was -6.582 ± 0.0526 kcal/mol.

For the origin of these results see the NIST ThermoML archive (doi:10.1021/acs.jced.7b00900).
